Experimental data as given in ChEMBL document CHEMBL5523727, “Discovery of KT-413, a Targeted Protein Degrader of IRAK4 and IMiD Substrates Targeting MYD88 Mutant Diffuse Large B-Cell Lymphoma” (J Med Chem, 2024).

How the values were obtained:
[1] = Metabolic stability in human liver microsomes assessed as intrinsic clearance at 1 uM measured upto 60 mins in presence of NADPH by UPLC/MS-MS analysis; assay type: ADME, Microsome; conditions: read-out: CLH
[2] = target: Protein cereblon/Interleukin-1 receptor-associated kinase 4 (Homo sapiens, UniProt Q9NWZ3+Q96SW2); test: PROTAC activity at CRBN/IRAK4 in human OCI-Ly10 cells assessed as induction of IRAK4 degradation measured after 24 hrs by MSD assay; assay type: cell-based
Protein cereblon = Protein cereblon (Homo sapiens, UniProt Q96SW2); test: Binding affinity to CRBN (unknown origin) by HTRF assay
[3] = Metabolic stability in rat liver microsomes assessed as intrinsic clearance at 1 uM measured upto 60 mins in presence of NADPH by UPLC/MS-MS analysis; assay type: ADME, Microsome; conditions: read-out: CLH
[4] = Passive permeability of the compound in wild type MDCK cells across apical to basolateral side at 1 uM measured for 120 mins by LC-MS/MS analysis; assay type: ADME, cell-based, Canis lupus familiaris; conditions: dog, read-out: permeability
OCI-Ly10 = test: Antiproliferative activity against human OCI-Ly10 cells measured after 4 days by CellTiter-Glo Luminescent Cell Viability Assay; assay type: functional, cell-based
Cereblon/Ikaros = Cereblon/Ikaros (Homo sapiens, UniProt Q96SW2+Q13422); test: PROTAC activity at CRBN/Ikaros in human OCI-Ly10 cells assessed as induction of Ikaros degradation measured after 24 hrs by MSD assay; assay type: cell-based
[5] = AUC in rat at 10 mg/kg, po by LC-MS/MS analysis; assay type: ADME, organism-based; conditions: in vivo
[6] = Half life in rat at 2 mg/kg, iv by LC-MS/MS analysis; assay type: ADME, organism-based; conditions: in vivo
[7] = Clearance in rat at 2 mg/kg, iv by LC-MS/MS analysis; assay type: ADME, organism-based; conditions: in vivo
[8] = Oral bioavailability in rat at 10 mg/kg by LC-MS/MS analysis; assay type: ADME, organism-based; conditions: in vivo; for F: po, 10 mg/kg
[9] = Volume of distribution at steady state in rat at 2 mg/kg, iv by LC-MS/MS analysis; assay type: ADME, organism-based; conditions: in vivo, read-out: Vdss
[10] = target: Protein cereblon/Interleukin-1 receptor-associated kinase 4 (Homo sapiens, UniProt Q96SW2+Q9NWZ3); test: Binding affinity to CRBN/IRAK4 […] assessed as dissociation constant by DiscoverX Kd Elect assay
Chain of Protein cereblon/Interleukin-1 receptor-associated kinase 4 (Homo sapiens, UniProt Q96SW2+Q9NWZ3) (Q9NWZ3 whole entry): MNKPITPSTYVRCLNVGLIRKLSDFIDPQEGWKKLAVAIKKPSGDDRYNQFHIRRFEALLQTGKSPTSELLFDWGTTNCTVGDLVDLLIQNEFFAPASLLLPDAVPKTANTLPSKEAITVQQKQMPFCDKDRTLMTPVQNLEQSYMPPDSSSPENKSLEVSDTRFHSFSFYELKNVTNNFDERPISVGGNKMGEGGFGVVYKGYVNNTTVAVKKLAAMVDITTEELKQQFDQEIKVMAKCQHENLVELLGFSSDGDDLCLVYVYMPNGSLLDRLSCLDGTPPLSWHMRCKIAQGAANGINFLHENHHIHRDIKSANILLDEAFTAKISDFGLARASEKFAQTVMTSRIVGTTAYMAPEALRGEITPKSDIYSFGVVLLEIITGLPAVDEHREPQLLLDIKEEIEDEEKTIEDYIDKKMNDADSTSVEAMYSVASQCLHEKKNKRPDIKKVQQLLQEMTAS
Chain of Protein cereblon/Interleukin-1 receptor-associated kinase 4 (Homo sapiens, UniProt Q96SW2+Q9NWZ3) (Q96SW2 whole entry): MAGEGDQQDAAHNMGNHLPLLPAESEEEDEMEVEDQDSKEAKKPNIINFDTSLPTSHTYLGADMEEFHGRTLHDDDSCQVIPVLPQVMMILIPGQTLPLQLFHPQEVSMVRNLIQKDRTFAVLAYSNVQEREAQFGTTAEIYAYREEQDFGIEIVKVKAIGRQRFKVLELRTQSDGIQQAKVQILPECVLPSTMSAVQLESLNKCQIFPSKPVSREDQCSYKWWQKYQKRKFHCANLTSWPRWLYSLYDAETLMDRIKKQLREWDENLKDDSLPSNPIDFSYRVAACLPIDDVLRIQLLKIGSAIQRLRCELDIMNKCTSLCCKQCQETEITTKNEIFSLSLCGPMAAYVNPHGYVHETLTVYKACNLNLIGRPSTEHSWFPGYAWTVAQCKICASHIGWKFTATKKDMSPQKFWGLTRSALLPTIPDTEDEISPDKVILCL

Chain of Protein cereblon/Interleukin-1 receptor-associated kinase 4 (Homo sapiens, UniProt Q9NWZ3+Q96SW2) (Q9NWZ3 whole entry): as the sequence (Q9NWZ3 whole entry) above
Chain of Protein cereblon/Interleukin-1 receptor-associated kinase 4 (Homo sapiens, UniProt Q9NWZ3+Q96SW2) (Q96SW2 whole entry): as the sequence (Q96SW2 whole entry) above
Chain of Protein cereblon (Q96SW2 whole entry): as above
Chain of Cereblon/Ikaros (Q96SW2 whole entry): as above
Chain of Cereblon/Ikaros (Q13422 whole entry): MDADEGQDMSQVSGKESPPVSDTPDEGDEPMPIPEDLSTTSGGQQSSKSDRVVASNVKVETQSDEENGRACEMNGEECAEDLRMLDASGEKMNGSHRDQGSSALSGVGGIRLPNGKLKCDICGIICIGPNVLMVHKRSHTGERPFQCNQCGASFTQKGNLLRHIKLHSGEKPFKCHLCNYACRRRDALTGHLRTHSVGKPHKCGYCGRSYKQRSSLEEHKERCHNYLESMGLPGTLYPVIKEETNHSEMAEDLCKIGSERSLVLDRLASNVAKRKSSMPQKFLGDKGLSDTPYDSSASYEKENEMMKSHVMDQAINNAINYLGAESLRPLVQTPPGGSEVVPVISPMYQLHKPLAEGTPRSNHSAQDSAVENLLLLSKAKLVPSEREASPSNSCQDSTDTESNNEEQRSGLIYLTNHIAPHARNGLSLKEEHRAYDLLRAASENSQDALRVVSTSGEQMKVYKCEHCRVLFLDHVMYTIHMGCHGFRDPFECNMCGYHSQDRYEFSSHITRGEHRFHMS

| Compound | microsomal CLint at 1 µM [1] | DC50 [2] | IC50 (Protein cereblon) | microsomal CLint at 1 µM [3] | Papp A→B at 2 h, 1 µM [4] | IC50 (OCI-Ly10; oci-ly10) | DC50 (Cereblon/Ikaros) | IC50 (OCI-Ly10; Homo sapiens, OCI-Ly10, 96 h) | AUC ([5]; read-out: AUC) | half-life [6] | clearance [7] | bioavailability [8] | Vd [9] | Kd [10] | AUC ([5]; po, 10 mg/kg) | F [8] |
| --- | --- | --- | --- | --- | --- | --- | --- | --- | --- | --- | --- | --- | --- | --- | --- | --- |
| CN(C[C@H]1CC[C@H](n2cc3cc(NC(=O)c4cccc(C(F)(F)F)n4)c(C(C)(C)O)cc3n2)CC1)[C@H]1CC[C@@]2(CC1)C[C@H](Nc1cccc3c1C(=O)N(C1CCC(=O)NC1=O)C3=O)C2 (stereo partly specified) | < 1.8 µL/min/mg | 13 nM | 5 nM | < 1.8 µL/min/mg | 2.9 ×10⁻⁶ cm/s | 134 nM | 19 nM | – | – | – | – | – | – | – | – | – |
| Nc1cccc2c1C(=O)N(C1CCC(=O)NC1=O)C2=O (stereo unspecified) [POMALIDOMIDE] | – | – | – | – | – | – | – | 1400 nM | – | – | – | – | – | – | – | – |
| COc1cc2nc([C@H]3CC[C@H](CN4CC5(CC(CCNc6cccc7c6C(=O)N(C6CCC(=O)NC6=O)C7=O)C5)C4)CC3)n(C)c2cc1NC(=O)c1cccc(C(F)(F)F)n1 (stereo partly specified) | 7 µL/min/mg | 33 nM | – | 2.2 µL/min/mg | 0.4 ×10⁻⁶ cm/s | – | 2 nM | 35 nM | 0.09 µM·h | 11 h | 41 mL/min/kg | 2.3% | 33 L/kg | – | – | – |
| COc1cc2nn([C@H]3CC[C@H](CN(C)CCCO[C@H]4C[C@H](Nc5cccc6c5C(=O)N(C5CCC(=O)NC5=O)C6=O)C4)CC3)cc2cc1NC(=O)c1cccc(C(F)(F)F)n1 (stereo partly specified) | 19 µL/min/mg | 29 nM | 23 nM | 10 µL/min/mg | 2.4 ×10⁻⁶ cm/s | – | 28 nM | 360 nM | – | – | – | – | – | – | – | – |
| CC(C)(O)c1cc2nn(-c3ccc(CO)cc3)cc2cc1NC(=O)c1cccc(C(F)(F)F)n1 | – | – | – | – | – | – | – | – | – | – | – | – | – | 3.5 nM | – | – |
| CC(C)(O)c1cc2nn(CCCCCNCCCNc3cccc4c3C(=O)N(C3CCC(=O)NC3=O)C4=O)cc2cc1NC(=O)c1cccc(C(F)(F)F)n1 (stereo unspecified) | – | 128 nM | 79 nM | – | 0.42 ×10⁻⁶ cm/s | – | 17 nM | 125 nM | – | – | – | – | – | 2.2 nM | – | – |
| CC(C)(O)c1cc2nn([C@H]3CC[C@H](CO)CC3)cc2cc1NC(=O)c1cccc(C(F)(F)F)n1 | – | – | – | – | – | – | – | – | – | – | – | – | – | 0.37 nM | – | – |
| COc1cc2nc([C@H]3CC[C@H](CN4CC5(CC(CCNc6cccc7c6C(=O)N(C6CCC(=O)NC6=O)C7=O)C5)C4)CC3)cn2cc1NC(=O)c1cccc(C(F)(F)F)n1 (stereo partly specified) | < 1.8 µL/min/mg | 38 nM | – | < 1.8 µL/min/mg | 0.64 ×10⁻⁶ cm/s | – | 26 nM | 154 nM | 0.01 µM·h | 15 h | 40 mL/min/kg | < 1% | 43 L/kg | – | – | – |
| CN(CCCO[C@H]1C[C@H](Nc2cccc3c2C(=O)N(C2CCC(=O)NC2=O)C3=O)C1)C[C@H]1CC[C@H](n2cc3cc(NC(=O)c4cccc(C(F)(F)F)n4)c(C(F)F)cc3n2)CC1 (stereo partly specified) | 25 µL/min/mg | 13 nM | 24 nM | 32 µL/min/mg | 0.76 ×10⁻⁶ cm/s | – | 17 nM | 46 nM | – | – | – | – | – | – | – | – |
| CN(CCCO[C@H]1C[C@@H](Nc2cccc3c2C(=O)N(C2CCC(=O)NC2=O)C3=O)C1)C[C@H]1CC[C@H](n2cc3cc(NC(=O)c4cccc(C(F)(F)F)n4)c(C(C)(C)O)cc3n2)CC1 (stereo partly specified) | 26 µL/min/mg | 43 nM | 75 nM | 16 µL/min/mg | 2.8 ×10⁻⁶ cm/s | – | 10 nM | 166 nM | – | – | – | – | – | 0.34 nM | – | – |
| CN(CCCNc1cccc2c1C(=O)N(C1CCC(=O)NC1=O)C2=O)C[C@H]1CC[C@H](n2cc3cc(NC(=O)c4cccc(C(F)(F)F)n4)c(C(C)(C)O)cc3n2)CC1 (stereo partly specified) | 140 µL/min/mg | 36 nM | 62 nM | 138 µL/min/mg | 0.66 ×10⁻⁶ cm/s | – | 10 nM | 120 nM | – | – | – | – | – | 0.38 nM | – | – |
| CN(CCCOCCCNc1cccc2c1C(=O)N(C1CCC(=O)NC1=O)C2=O)C[C@H]1CC[C@H](n2cc3cc(NC(=O)c4cccc(C(F)(F)F)n4)c(C(C)(C)O)cc3n2)CC1 (stereo partly specified) | 60 µL/min/mg | 12 nM | 32 nM | 53 µL/min/mg | 7.5 ×10⁻⁶ cm/s | – | 21 nM | 270 nM | – | – | – | – | – | 0.66 nM | – | – |
| CC(C)(O)c1cc2nn(CCCCCCCCCNc3cccc4c3C(=O)N(C3CCC(=O)NC3=O)C4=O)cc2cc1NC(=O)c1cccc(C(F)(F)F)n1 (stereo unspecified) | – | 3300 nM | > 1100 nM | – | – | – | 55 nM | 588 nM | – | – | – | – | – | 320 nM | – | – |
| O=C1CCC(N2C(=O)c3cccc(NCC4CC5(CCN(C[C@H]6CC[C@H](n7cc8cc(NC(=O)c9cccc(C(F)(F)F)n9)c(C(F)F)cc8n7)CC6)CC5)C4)c3C2=O)C(=O)N1 (stereo partly specified) | < 1.8 µL/min/mg | 56 nM | 58 nM | < 1.8 µL/min/mg | 2.7 ×10⁻⁶ cm/s | – | 69 nM | 142 nM | – | 29 h | – | – | 11 L/kg | – | 1.5 µM·h | 16% |
| COc1cc2nn([C@H]3CC[C@H](CN4CCC5(CC4)CC(CNc4cccc6c4C(=O)N(C4CCC(=O)NC4=O)C6=O)C5)CC3)cc2cc1NC(=O)c1cccc(C(F)(F)F)n1 (stereo partly specified) | 2.7 µL/min/mg | 16 nM | 66 nM | 1.6 µL/min/mg | 1.3 ×10⁻⁶ cm/s | – | 43 nM | 84 nM | – | 25 h | – | – | 11 L/kg | – | 1.88 µM·h | 11% |
| CN(CCCO[C@H]1C[C@H](Nc2cccc3c2C(=O)N(C2CCC(=O)NC2=O)C3=O)C1)C[C@H]1CC[C@H](n2cc3cc(NC(=O)c4cccc(C(F)(F)F)n4)ccc3n2)CC1 (stereo partly specified) | 102 µL/min/mg | 33 nM | 24 nM | 11 µL/min/mg | 5.5 ×10⁻⁶ cm/s | – | 10 nM | 75 nM | – | – | – | – | – | – | – | – |
| CN(CCCN(C)c1cccc2c1C(=O)N(C1CCC(=O)NC1=O)C2=O)C[C@H]1CC[C@H](n2cc3cc(NC(=O)c4cccc(C(F)(F)F)n4)c(C(C)(C)O)cc3n2)CC1 (stereo partly specified) | 300 µL/min/mg | 14 nM | 200 nM | 250 µL/min/mg | 4.2 ×10⁻⁶ cm/s | – | 282 nM | 308 nM | – | – | – | – | – | 0.64 nM | – | – |
| CN(C[C@H]1CC[C@H](n2cc3cc(NC(=O)c4cccc(C(F)(F)F)n4)c(C(C)(C)O)cc3n2)CC1)[C@H]1CC[C@]2(CC1)C[C@H](Nc1cccc3c1C(=O)N(C1CCC(=O)NC1=O)C3=O)C2 (stereo partly specified) | < 1.8 µL/min/mg | 6 nM | 8 nM | < 1.8 µL/min/mg | 2.1 ×10⁻⁶ cm/s | – | 57 nM | 78 nM | – | – | – | – | – | – | – | – |
| COc1cc2nn([C@H]3CC[C@H](CN4CC5(CC(CCNc6cccc7c6C(=O)N(C6CCC(=O)NC6=O)C7=O)C5)C4)CC3)cc2cc1NC(=O)c1cccc(C(F)(F)F)n1 (stereo partly specified) | 0.79 µL/min/mg | 8 nM | 27 nM | 1.6 µL/min/mg | 1 ×10⁻⁶ cm/s | – | 9 nM | 48 nM | – | 17 h | – | – | 29 L/kg | – | 0.13 µM·h | 4.2% |
